Consider one compound from patent publication US20210337789A1, “Derivatives of m-Guaiacol, Their Preparation and Their Uses” (Universite de Caen Normandie, priority 2018, published 2021).

Assay [1] concerns Micrococcus luteus reference strain. The assay is described as follows: Bacterial growth (optical density at 600 nm) on Micrococcus luteus reference strain. The assay is classed as cell-based. More on the design: key: 0 = no effect, 1 = pure only, 2 = several concentrations, 3 = strong at all. Particulars: in DMSO diluted in PBS, compared with triclosan. The procedure: (§1) The bacterial growth is evaluated by measuring the optical density (DO) at 600 nm using NanoDrop.
(§2) This ratio permits a classification of the molecules in 4 effect levels: • 0=no effect observed; • 1=effect observed only when the molecule is tested pure; • 2=effect observed at several concentrations, but which gradually decreases the dilutions; • 3=strong effect observed at each concentration of molecule tested.
The molecules are put in a solution in DMSO and diluted in PBS.

Assay [2] has as its system E. coli strains presenting high levels of resistance. The assay is described as follows: Bacterial growth on E. coli strains presenting high levels of resistance. The assay is classed as cell-based, Escherichia coli. Details: key to Effects (0 < 1 < 2 < 3): 0 = no effect; 1 = pure only; 2 = several concs; 3 = strong at each; key to Δ DO: change in optical density measured at 600 nm. Conditions: for Effects (0 < 1 < 2 < 3): molecules at 1, 0.5 and 0.1 mg/ml, triclosan at 0.1 mg/ml. On the procedure: as §1, §2
Compounds of the invention were tested on 4 strains of E. coli, 3 strains of K. pneumoniae and 4 strains of S. aureus with the resistance profiles below.

Consider `COc1cc(O)c(Br)c(Cl)c1F` [sr7615], for which the Effect level in assay [1] turned out to be 3. In addition, the “Δ DO” value in assay [2] (E. coli Strain 1, 0.1 mg/ml) is 0.047; in assay [2] (E. coli Strain 1, 0.5 mg/ml) it was 0.777; in assay [2] (E. coli Strain 1, 1 mg/ml), 0.896; in assay [2] (E. coli Strain 2, 0.1 mg/ml), 0.080; in assay [2] (E. coli Strain 2, 0.5 mg/ml) it was 0.886; in assay [2] (E. coli Strain 2, 1 mg/ml) it was 1.082. In addition, the “Δ DO” value in assay [2] (E. coli Strain 3, 0.1 mg/ml) is given as 0.029; in assay [2] (E. coli Strain 3, 0.5 mg/ml), 0.526; in assay [2] (E. coli Strain 3, 1 mg/ml), 0.882; in assay [2] (E. coli Strain 4, 0.1 mg/ml), 0.253; in assay [2] (E. coli Strain 4, 0.5 mg/ml), 0.809; in assay [2] (E. coli Strain 4, 1 mg/ml), 0.945. Moreover, the “Effects (0 < 1 < 2 < 3)” value was determined as 2 in assay [2] (E. coli Strain 1), 2 in assay [2] (E. coli Strain 2), 2 in assay [2] (E. coli Strain 3) and 3 in assay [2] (E. coli Strain 4).
